According to PubChem BioAssay AID2060619 (Molecular Pharmacology Branch, DTP, NCI, 2025):

Test system: 323965-272-R-J2-PDC complex spheroid viability
Assay: Anticancer human tumor 323965-272-R-J2-PDC patient-derived pancreatic carcinoma cell line growth inhibition [CLK]
Settings: for IC50: curve of first compound; for viability, T/C: stronger effect = lower value
From the text: A high-throughput screen of multi-cell type tumor spheroids was designed to identify active combinations of […] and targeted small molecules. Complex spheroids include a stromal component modeled by human endothelial cells (HUVEC) and fibroblasts modeled by human mesenchymal stem cells (MSCs). The concentration ranges selected for each drug and investigational agent were based upon clinically achievable concentrations if the clinical Cmax of the agent was known.
Compounds. The drugs and investigational agents: cirtuvivint (SM08502; NSC835563), CC-671 (NSC850746), vemurafenib (NSC761431), tapotoclax (NSC804041), sotorasib (NSC818433), adagrasib (NSC831453), MRTX-1133 (NSC836407), BAY2416964 (NSC825713), copanlisib (NSC816437), inavolisib (NSC800729), abemaciclib (NSC768073), osimertinib (NSC779217), entinostat (NSC756642), eltanexor (KPT-8602, NSC794443), venetoclax (NSC766270), ceralasertib (NSC777638), bortezomib (NSC756655), olaparib (NSC753686), talazoparib (NSC767125), alisertib (NSC759677), peposertib (NSC802822), gemcitabine (NSC613327), 5-fluorouracil (NSC19893), SN-38 (NSC673596), oxaliplatin (NSC266046), paclitaxel (NSC125973), and doxorubicin (NSC123127), were obtained from the National Cancer Institute (NCI) Developmental Therapeutics Program Chemical Repository. The FDA-approved anticancer drug set is available from the Developmental Therapeutics Program at https://dtp.cancer.gov/organization/dscb/obtaining/available plates.htm. […] The stock solutions were prepared in dimethyl sulfoxide (DMSO, Sigma-Aldrich, St. Louis, MO, cat. D2650), except for the platinum complexes which were prepared in saline (Quality Biological, Gaithersburg, MD, cat. 114-055-101), at 800-fold the tested concentration and stored at -70 degrees C prior to their use. All drugs and investigational agents were tested over a range starting from a high concentration at or near the clinical Cmax and decreasing in half-log increments. If the clinical Cmax for an agent had not been determined, the highest concentration tested was 10 microM.
Cell Culture. All cells were maintained in an incubator at 37 degrees C and 5% CO2 with 95% humidity. The PDC lines were cultured according to standard operating procedures established by the NCI PDMR. Briefly, all PDCs were thawed and cultured in Matrigel-coated flasks prepared with a working solution of 1X Ham's F-12 nutrient mix, without supplementation (Invitrogen, Waltham, MA, cat. 11765054), 100 U/mL penicillin-streptomycin (Invitrogen, cat. 15140122), and 2.5% Matrigel (Corning Inc., Corning, NY, cat. 354248) for the first three passages. The 947758-054-R-J2-PDC line was cultured in 6B/Colon 1A media, which includes advanced DMEM/F-12 (Thermo Fisher Scientific, cat. 12634028), 10 mM HEPES (Thermo Fisher Scientific, cat. 15630080), 1X GlutaMAX supplement (Thermo Fisher Scientific, cat. 35050061), 0.1 mg/mL primocin (InvivoGen, cat. ant-pm-2), 10% defined fetal bovine serum, heat inactivated (HyClone Laboratories Inc., cat. SH30070.03HI), 1.25 mM N-Acetyl-L-cysteine (Sigma-Aldrich, cat. A9165), 10 mM nicotinamide (Sigma-Aldrich, cat. N0636), 1X B-27 supplement (Thermo Fisher Scientific, cat. 17504044), 1X N-2 supplement (Thermo Fisher Scientific, cat. 17502048), and 10 microM Y-27632 dihydrochloride (Tocris Bioscience, cat. 1254). The 876862-298-R-J1-PDC was cultured in 6E media, which includes all 6B/Colon 1A media components plus 50% L-WRN conditioned media (ATCC, cat. CRL-3276), 50 ng/mL recombinant human EGF recombinant protein (hEGF; Thermo Fisher Scientific, cat. PHG0311), 10 ng/mL recombinant human fibroblast growth factor 10 (hGFG-10; PeproTech, cat. 100-26), 1 ng/mL recombinant human fibroblast growth factor 2 (hFGF-2; PeproTech, cat. 100-18B), and 1 µM prostaglandin E2 (PGE2; Tocris, cat. 2296). The 227483-062-R1-J1-PDC line was cultured in Panc media, containing all 6E components except hFGF-2, with the addition of 500 nM SB-431542 (Selleckchem, cat. S1067) and 10 nM gastrin (Tocris, cat. 3006). […]

[1] = second compound 0.0316 µM, first compound 0.0316 µM
[2] = second compound 0.0316 µM, first compound 0.1 µM
[3] = second compound 0.0316 µM, first compound 0.316 µM
[4] = second compound 0.0316 µM, first compound 1 µM
[5] = second compound 0.0316 µM, first compound 3.16 µM
[6] = second compound 0.0316 µM, first compound 10 µM
[7] = second compound 0.1 µM, first compound 0.0316 µM
[8] = second compound 0.1 µM, first compound 0.1 µM
[9] = second compound 0.1 µM, first compound 0.316 µM
[10] = second compound 0.1 µM, first compound 1 µM
[11] = second compound 0.1 µM, first compound 3.16 µM
[12] = second compound 0.1 µM, first compound 10 µM
[13] = second compound 0.316 µM, first compound 0.0316 µM
[14] = second compound 0.316 µM, first compound 0.1 µM
[15] = second compound 0.316 µM, first compound 0.316 µM
[16] = second compound 0.316 µM, first compound 1 µM
[17] = second compound 0.316 µM, first compound 3.16 µM
[18] = second compound 0.316 µM, first compound 10 µM
[19] = second compound 1 µM, first compound 0.0316 µM
[20] = second compound 1 µM, first compound 0.1 µM
[21] = second compound 1 µM, first compound 0.316 µM
[22] = second compound 1 µM, first compound 1 µM
[23] = second compound 1 µM, first compound 3.16 µM
[24] = second compound 1 µM, first compound 10 µM
[25] = second compound 3.16 µM, first compound 0.0316 µM
[26] = second compound 3.16 µM, first compound 0.1 µM
[27] = second compound 3.16 µM, first compound 0.316 µM
[28] = second compound 3.16 µM, first compound 1 µM
[29] = second compound 3.16 µM, first compound 3.16 µM
[30] = second compound 3.16 µM, first compound 10 µM
[31] = second compound 10 µM, first compound 0.0316 µM
[32] = second compound 10 µM, first compound 0.1 µM
[33] = second compound 10 µM, first compound 0.316 µM
[34] = second compound 10 µM, first compound 1 µM
[35] = second compound 10 µM, first compound 3.16 µM
[36] = second compound 10 µM, first compound 10 µM
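Further: spheroids exposed to agents for seven days before readout.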
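Wherever viability, T/C is given: percent of DMSO vehicle control wells so 100% = untreated growth.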

## C=CC(=O)N1CCN(c2nc(=O)n(-c3c(C)ccnc3C(C)C)c3nc(-c4c(O)cccc4F)c(F)cc23)C(C)C1 (centres undefined) + CN1CCN(c2cc(C(=O)Nc3cc4cc(-c5cnn(C)c5)ccc4cn3)ccn2)CC1
Second compound 0.0316 µM
  IC50: > 10000 nM
Second compound 0.1 µM
  IC50: < 31.6 nM
Second compound 0.316 µM
  IC50: < 31.6 nM
Second compound 1 µM
  IC50: < 31.6 nM
Second compound 3.16 µM
  IC50: < 31.6 nM
Second compound 10 µM
  IC50: < 31.6 nM
[1]
  viability, T/C: 63%
[2]
  viability, T/C: 64.3%
[3]
  viability, T/C: 55%
[4]
  viability, T/C: 63.9%
[5]
  viability, T/C: 60.1%
[6]
  viability, T/C: 67.9%
[7]
  viability, T/C: 51.3%
[8]
  viability, T/C: 45.8%
[9]
  viability, T/C: 39.8%
[10]
  viability, T/C: 57.4%
[11]
  viability, T/C: 51.5%
[12]
  viability, T/C: 46.6%
[13]
  viability, T/C: 17.9%
[14]
  viability, T/C: 17.9%
[15]
  viability, T/C: 16%
[16]
  viability, T/C: 18.2%
[17]
  viability, T/C: 17.4%
[18]
  viability, T/C: 22.6%
[19]
  viability, T/C: 2.53%
[20]
  viability, T/C: 3.03%
[21]
  viability, T/C: 3.22%
[22]
  viability, T/C: 3.64%
[23]
  viability, T/C: 5.21%
[24]
  viability, T/C: 5.85%
[25]
  viability, T/C: 2.77%
[26]
  viability, T/C: 2.98%
[27]
  viability, T/C: 3.49%
[28]
  viability, T/C: 3.29%
[29]
  viability, T/C: 5.91%
[30]
  viability, T/C: 5.6%
[31]
  viability, T/C: 3.45%
[32]
  viability, T/C: 3.36%
[33]
  viability, T/C: 3.83%
[34]
  viability, T/C: 3.24%
[35]
  viability, T/C: 4.22%
[36]
  viability, T/C: 4.53%

## COC1C=CCC(C)C(C)S(=O)(=O)NC(=O)c2ccc3c(c2)N(CC2CCC21)CC1(CCCc2cc(Cl)ccc21)CO3 (centres undefined) + CN1CCN(c2cc(C(=O)Nc3cc4cc(-c5cnn(C)c5)ccc4cn3)ccn2)CC1
Second compound 0.0316 µM
  IC50: 841 nM
Second compound 0.1 µM
  IC50: 456 nM
Second compound 0.316 µM
  IC50: < 31.6 nM
Second compound 1 µM
  IC50: < 31.6 nM
Second compound 3.16 µM
  IC50: < 31.6 nM
Second compound 10 µM
  IC50: < 31.6 nM
[1]
  viability, T/C: 97.8%
[2]
  viability, T/C: 92.1%
[3]
  viability, T/C: 62%
[4]
  viability, T/C: 47.8%
[5]
  viability, T/C: 30%
[6]
  viability, T/C: 12.3%
[7]
  viability, T/C: 72.5%
[8]
  viability, T/C: 67%
[9]
  viability, T/C: 53.5%
[10]
  viability, T/C: 39.1%
[11]
  viability, T/C: 28.9%
[12]
  viability, T/C: 10.4%
[13]
  viability, T/C: 27.5%
[14]
  viability, T/C: 26.2%
[15]
  viability, T/C: 21.1%
[16]
  viability, T/C: 17.7%
[17]
  viability, T/C: 15.1%
[18]
  viability, T/C: 9.86%
[19]
  viability, T/C: 3.35%
[20]
  viability, T/C: 4.19%
[21]
  viability, T/C: 4.18%
[22]
  viability, T/C: 3.31%
[23]
  viability, T/C: 1.96%
[24]
  viability, T/C: 2.43%
[25]
  viability, T/C: 3.51%
[26]
  viability, T/C: 3.78%
[27]
  viability, T/C: 3.33%
[28]
  viability, T/C: 3.25%
[29]
  viability, T/C: 2.59%
[30]
  viability, T/C: 2.44%
[31]
  viability, T/C: 5.25%
[32]
  viability, T/C: 3.97%
[33]
  viability, T/C: 3.84%
[34]
  viability, T/C: 3.47%
[35]
  viability, T/C: 2.83%
[36]
  viability, T/C: 2.37%
